Measurements reported in US20170362283A1, “NISIN-BASED COMPOUNDS AND USE THEREOF IN THE TREATMENT OF BACTERIAL INFECTIONS” (UNIVERSITEIT UTRECHT HOLDING B.V., priority 2015, published 2017).
Like-named read-outs stand apart in the source and are kept apart here.

Tests used:
B. subtilis = conditions: duplicate experiments
Procedure: (§1) Determining the MIC value is a standard technique well known to the skilled person, in particular the MIC value can be measured using method M07-A9 (CLSI standard, January 2012, Vol. 32, No. 2, “Methods for Dilution Antimicrobial Susceptibility Tests for Bacteria That Grow Aerobically”).
(§2) Different microorganisms (from glycerol stock) were plated out on blood agar and incubated at 37° C. for 24 hours. A colony was selected and 2×5 mL of TSB was inoculated. The samples and a sterile control were cultured for 16-20 hours at 37° C. Comparative compound B is nisin acting as a control. […] Comparative compounds A, D and E are also control compounds not part of the present invention.
(§3) The overnight cultures were diluted to 0.5×10^6 CFU in TSB. 50 μL of the bacterial solution was added to each well and the plates were sealed with an adhesive membrane and incubated at 37° C. for 16 hours. The next day, the plates were visually inspected for bacterial growth.

E. coli = conditions: duplicate experiments
Procedure: as §1, §2, §3

S. aureus = conditions: duplicate experiments
Procedure: as §1, §2, §3

M. luteus = assay type: cell-based; conditions: duplicate experiments
Procedure: as §1
(§4) Different microorganisms (from glycerol stock) were plated out on blood agar and incubated at 37° C. for 24 hours. A colony was selected and 2×5 mL of TSB was inoculated. The samples and a sterile control were cultured for 16-20 hours at 37° C. Comparative compound B is nisin acting as a control. Comparative compound C is vancomycin, also acting as a control. Comparative compounds A, D and E are also control compounds not part of the present invention.
as §3

VRE 155 = assay type: cell-based; conditions: duplicate experiments
Procedure: as §1, §4, §3

MRSA USA300 = assay type: cell-based, Staphylococcus aureus; conditions: duplicate experiments
Procedure: as §1, §4, §3

MRSA WKZ2 = assay type: cell-based, Staphylococcus aureus; conditions: duplicate experiments
Procedure: as §1, §4, §3

erythrocytes = test: Hemolysis assay; conditions: human erythrocytes, 1 h, at 32 μg/mL
Procedure: Human whole blood was centrifuged at 600×g for 15 min and levels of plasma and hematocrit were marked on the tube. Plasma was removed and the erythrocytes washed 3× with PBS (centrifuging at 600×g for 15 mins). After discarding the supernatant, the packed cells were stored on ice. 100 μL of the peptides (128 μg/mL in PBS, 2% DMSO) as well as a control solution comprised of 2% DMSO in PBS were added to the top row of a polypropylene, round-bottom 96 well plate and 50 μL of PBS to the rest of the wells. The peptides and the DMSO control solutions were then diluted serially down the rows. 200 μL of the packed cells were added to PBS (10 mL) and 50 μL of this suspension was added to each well. A column with DI water containing 0.1% Triton X-100 was used as the 100% lysis control, and the column containing the serially-diluted PBS (1.0% DMSO) control served as the 0% lysis reference. The cells were incubated at 37° C. for 1 h. After incubation the plates were centrifuged (800×g, 5 min) and 25 μL of the supernatant was added to 100 μL DI water in a flat-bottom plate (polystyrene). The absorption at 414 nm was recorded to measure the amount of free hemoglobin.

vancomycin was tested, and the “MIC values B. subtilis” value (B. subtilis) was 0.03 to 0.06 µg/mL, the “MIC values E. coli” value (E. coli) was greater than 10 µg/mL and the “MIC values S. aureus” value (S. aureus) was 0.25 to 0.31 µg/mL. The “MIC values M. luteus” value (M. luteus) was 0.03 µg/mL, the “MIC values VRE 155” value (VRE 155) was greater than 10 µg/mL and the “MIC values MRSA USA300” value (MRSA USA300) was 0.625 µg/mL. For the same substance, the “MIC values MRSA WKZ2” value (MRSA WKZ2) was 0.625 µg/mL, the hemolysis (erythrocytes) was “negligible hemolysis” and the MIC (thirty VRE strains; VRE strain E0013, GBR, vanA) was 32 µg/mL. It also gave an MIC (thirty VRE strains; VRE strain E0072, NLD, vanA) of 8 µg/mL, an MIC (thirty VRE strains; VRE strain E0300, USA, vanA) greater than 128 µg/mL and an MIC (thirty VRE strains; VRE strain E0321, FRA, vanA) greater than 128 µg/mL. It also gave an MIC (thirty VRE strains; VRE strain E0333, ISR, vanA) greater than 128 µg/mL, an MIC (thirty VRE strains; VRE strain E0338, ITA, vanA) greater than 128 µg/mL and an MIC (thirty VRE strains; VRE strain E0341, GBR, vanA) of 128 µg/mL. It also gave an MIC (thirty VRE strains; VRE strain E0506, AUS, vanA) greater than 128 µg/mL, an MIC (thirty VRE strains; VRE strain E0745, NLD, vanA) of 64 µg/mL and an MIC (thirty VRE strains; VRE strain E1130, USA, vanA) greater than 128 µg/mL. The MIC (thirty VRE strains; VRE strain E1441, GRC, vanA) was 128 µg/mL, the MIC (thirty VRE strains; VRE strain E1679, BRA, vanA) was greater than 128 µg/mL and the MIC (thirty VRE strains; VRE strain E1763, BEL, vanA) was greater than 128 µg/mL. For the same substance, the MIC (thirty VRE strains; VRE strain E2297, USA, vanA) was 128 µg/mL, the MIC (thirty VRE strains; VRE strain E2359, SGP, vanB) was <1-1 μg/mL and the MIC (thirty VRE strains; VRE strain E2365, HUN, vanB) was less than 1 µg/mL. It also gave an MIC (thirty VRE strains; VRE strain E2373, SRB, vanA) greater than 128 µg/mL, an MIC (thirty VRE strains; VRE strain E6016, LVA, vanA) of 128 µg/mL and an MIC (thirty VRE strains; VRE strain E7312, NLD, vanA) of 64 µg/mL. For the same substance, the MIC (thirty VRE strains; VRE strain E7314, NLD, vanB) was greater than 128 µg/mL, the MIC (thirty VRE strains; VRE strain E7319, NLD, vanA) was greater than 128 µg/mL and the MIC (thirty VRE strains; VRE strain E7329, NLD, vanA) was less than 1 µg/mL. For the same substance, the MIC (thirty VRE strains; VRE strain E7401, NLD, vanB) was 16 µg/mL, the MIC (thirty VRE strains; VRE strain E7403, NLD, vanB) was less than 1 µg/mL and the MIC (thirty VRE strains; VRE strain E7413, NLD, vanA) was greater than 128 µg/mL. The MIC (thirty VRE strains; VRE strain E7424, NLD, vanB) was greater than 128 µg/mL, the MIC (thirty VRE strains; VRE strain E7464, NLD, vanB) was 2 µg/mL and the MIC (thirty VRE strains; VRE strain E8218, NLD, vanB) was 8 µg/mL. For the same substance, the MIC (thirty VRE strains; VRE strain E8235, NLD, vanB) was 8 µg/mL, the MIC (thirty VRE strains; VRE strain E8237, NLD, vanA) was 128 µg/mL and the MIC50 (thirty VRE strains; thirty VRE strains) was “MIC50 = 128 μg/mL”. The MIC90 (thirty VRE strains; thirty VRE strains) was “MIC90 = >128 μg/mL”.
